89 compounds from a melting point compilation (Tetko et al.; mined from patent text by program, amines drawn as free bases though some values may be those of a salt) can be followed below.

Bounds are passed on as bounds.

The melting point is the temperature, or range, at which the solid turns liquid. `CN1CCN(C(=O)CCC(=O)N[C@@H]2CN3C(=O)N(c4cc(Cl)nc(Cl)c4)C(=O)[C@@]3(Cc3ccc(OC(F)(F)F)cc3)C2)CC1`: the melting point turned out to be 70 °C. Take `COCc1cc(N)n2nc(SC)c(S(=O)(=O)c3ccccc3)c2n1`: the melting point is more than 230 °C. Compound `COc1ccc2cc(C(C)C(=O)OCC(=O)OCCO[N+](=O)[O-])ccc2c1` (centres undefined) came in with a melting point of 44 to 45 °C. To `CCN(CC)CCN1CCN(c2ccc(N3C[C@H](CNC(C)=O)OC3=O)cc2F)CC1` belongs 131 to 133 °C; to `CCCOC(=O)Nc1ccc(NCc2cc(Cl)cc(Cl)c2)cc1N`, 154 to 155 °C; to `Cc1cc(-c2cnn3c(C(F)(F)F)cc(-c4ccc(Cl)c(C)c4)nc23)cc(C)n1`, 254 °C. The value for `CC(C)(C)C(NC(=O)c1ccc(Cl)cc1)Nc1c(Nc2ccncc2)c(=O)c1=O` (centres undefined) was 244 to 246 °C; that for `COc1ccc(Cl)cc1S(=O)(=O)N(C)c1ccccc1` was 88 to 89 °C. To `O=C(O)CCC(O)c1ccc(-c2ccc(Cl)cc2)cc1` (centres undefined) belongs 134 to 135 °C; to `O=C(c1ccc(F)c(F)c1)N1CCC[C@H](c2nc(-c3cscn3)no2)C1`, 107 to 109 °C. `COC(=O)c1cccc(F)c1S(C)(=O)=O`: the melting point was found to be 116 °C. For `CCOC(=O)c1cn2c(n1)CN=C(c1ccccn1)c1cc(Br)ccc1-2`, the melting point was in the range of 227 to 230 °C. The value for `O=C1Nc2ccc(C(F)(F)F)cc2C1c1ncnc2nn(C3CCCCC3)cc12` (centres undefined) was more than 300 °C; that for `O=C1NCCn2c1c(-c1ccccc1)c1ccccc1c2=O` was more than 300 °C.

Take `CCc1c(CC(O)N2CCN(c3cc(C)ccn3)CC2)c2cccc3c2n1CCC3` (centres undefined): the melting point stood at 60 °C. `CN1C(=N)CN(c2ccccc2)C1=O` displayed a melting point of 156 to 158 °C. With `O=C(O)CCNC(=O)C=Cc1ccccc1`, the melting point was 140 to 144 °C. The value for `O=C(NCCN1CCC2(CC1)C(=O)NCN2c1ccccc1)c1cccs1` was 194 °C; that for `COC(=O)c1cc(C(C)Br)cnc1C1=NC(C)(C(C)C)C(=O)N1` (centres undefined) was 123 to 126 °C. `CCN1C(=O)C(C(=O)Nc2ccc(Cl)cc2Oc2ccc(Cl)cc2)C(=O)N(C)C1=S` (centres undefined) gave a melting point of 250 to 251 °C.

For the compound `CC(C)NC1=NS(=O)(=O)c2ccc(CC(=O)O)cc2N1`, the melting point fell in the range of 262 to 264 °C. `CCc1ccc2c(c1)c(-c1ccccc1Cl)c(NC(=O)Nc1ccc(F)cc1F)c(=O)n2C` came in with a melting point of 192 to 195 °C. In the case of `CCOC(=O)c1c(C)[nH]c(CC)c1C`, the melting point is 108 to 109 °C. The value for `COC(=O)NCCc1ccc(OCC(O)CNC(C)C)nc1` (centres undefined) was 97 to 99 °C.

`Nc1nc2ccccc2c2c1nc(O)n2CC1CCOCC1`: the melting point is more than 250 °C. The value for `CN(c1ccccc1)P(N)(N)=O` was 97 to 99 °C. The value for `COc1ccc(C2=NNC(=O)Cc3cc4c(cc32)OCO4)cc1` was 194 to 196 °C. The value for `NC(=O)NN=C(CCl)COc1ccc(Cl)cn1` was 115 to 117 °C. `O=c1cc(-c2ccncc2)nc2n1CCC(c1ccncc1)N2CC(O)c1cccc(Br)c1` (centres undefined) came in with a melting point of 190 to 192 °C. The value for `COCCNC(=O)c1cccc(-c2cccc3nc(Cc4cccc(C(F)(F)F)c4)sc23)c1` was 101 to 102 °C; that for `Cn1cc(C(=O)Nc2ccccc2-c2ccc(Br)cc2)c(C(F)(F)F)c1` was 163 to 164 °C; that for `COc1ccc(NN=C(Sc2cc(Cl)cc(Cl)c2)C(C)=O)cc1` was 168 to 170 °C. For the compound `c1ccc(Nc2nc(-c3ccncc3)nc3ccccc23)cc1`, the melting point fell in the range of 270 to 274 °C. The compound `Cc1cc(C)cc(NC(=O)Cc2ccc(OC3(C(=O)O)CCCC3C)cc2)c1` (centres undefined) had a melting point of 184 to 186 °C. To `O=c1[nH]nc2n1C=Cc1cc(Cl)ccc1C2` belongs 281 to 283 °C. `CCCCCCC1(C)Nc2ccccc2-c2c([N+](=O)[O-])cnn21` (centres undefined) gave a melting point of 86 to 88 °C. `Cn1c(=O)cc(CCO)c2ccccc21` yielded a melting point of 149 to 150 °C.

Compound `CCSc1ccc2c3c([nH]c2c1)CCCCC3C` (centres undefined) came in with a melting point of 44 °C.

Compound `NC(=O)N1C(=O)C(=C(OC(=O)C=CC(=O)OCCCCc2ccccc2)c2cccs2)c2cc(F)c(Cl)cc21` returned a melting point of 159 to 161 °C.

Compound `c1ccc2cc(OC3CCC4(CCNCC4)CC3)ccc2c1` yielded a melting point of 132 to 134 °C. The value for `COc1ccc(C(=O)Nc2c(Cl)cncc2Cl)c2[nH]c(C(F)(F)F)nc12` was 300 to 301 °C. `COC(=O)c1cc(C(=O)OC)cc(-c2ccccc2)c1`: the melting point lay in the range of 91 to 92 °C. As to `C=CCOc1c(C(C)=O)ccc(OCCCOc2ccc3cc(C(=O)OC)oc3c2C)c1CCC`, the melting point lay within 80 to 83 °C. The value for `c1ccc(CC23CCN(CC2)CC3)cc1` was 48 °C. Turning to `CCOC(=O)c1cc(NC(=O)NCC(=O)N2[C@@H](C(=O)OC(C)(C)C)CC[C@H]2c2ccccc2)ccc1O` (racemic), the melting point came out at 150 °C.

Regarding `CS(=O)(=O)Nc1cc2oc(N)cc(=O)c2cc1Oc1ccccc1`, the melting point lay in the range of 223 to 225 °C.

Compound `COc1ccc(CNc2nc(SC)ncc2C(=O)CP(=O)(OC)OC)cc1Cl` yielded a melting point of 104 to 105 °C.

In turn, `Cc1noc(NS(=O)(=O)c2ccccc2-c2ccccn2)c1C` displayed a melting point of 136 to 137 °C. Compound `Nc1ccc(NCCNS(=O)(=O)c2ccccc2)cc1` gave a melting point of 144 °C. Turning to `CCOC(=O)C1=C[C@@H](OC(CC)CC)[C@@H](NC(C)=O)[C@H](O)[C@@H]1O`, the melting point amounted to 154 °C. In turn, `CC(=O)n1ncc2c(OCC3CO3)cccc21` (centres undefined) showed a melting point of 83 °C. With `CCOC(=O)NC1(c2ccc(C(C)C)cc2OC)C(=O)c2ccccc2C1=O`, the melting point lay in the range of 149 to 150 °C. On to `Cc1cc(O)c2c(c1)C(C)(C)CC2(C)C`, for which the melting point was found to be 66 °C.

Turning to `O=C1C(=O)c2ccccc2C2=C1SCC1(CCCN(CC(O)Cc3ccccc3)C1)O2` (centres undefined), the melting point lay in the range of 59 to 60 °C.

In turn, `CCOc1cc2c(cc1OC)C(=O)CC(C)(C)O2` had a melting point of 120 to 122 °C.

For `Nc1ccc(Oc2ncnc(Oc3ccccc3Cl)c2F)c(Cl)c1Cl`, the melting point was 162 to 163 °C. Take `O=c1n(CCO)c2ccccc2n1-c1ccc(F)cc1`: the melting point lay within 124 to 126 °C.

Consider `COc1cc(CCCC2OC(=O)NC2=O)ccc1OCc1coc(/C=C/c2ccccc2)n1` (centres undefined), for which the melting point is 178 to 179 °C.

`CC(C)Cn1c(=O)n(C)c(=O)c2c(I)n(Cc3cccc4ccccc34)cc21`: the melting point was 140 to 142 °C. In the case of `O=C(NCc1ccc(Cl)cc1)c1cn2c(CCO)cc3cc(CN4CCOCC4)cc(c1=O)c32`, the melting point was 169 to 172 °C. As to `CN1CCN(CC(=O)Nc2cccc3c2C(=O)c2c-3n[nH]c2-c2ccc(N3CCOCC3)cc2)CC1`, the melting point is 258 °C. Turning to `C[C@@H]1OC(P(=O)(O)O)=CC[C@@]1(O)n1cnc2c(N)ncnc21`, the melting point was found to be 151 °C. `COc1ccc2ncc([N+](=O)[O-])c(Cl)c2c1` returned a melting point of 281 to 283 °C.

On to `c1ccc(C(c2ccc3nccnc3c2)n2cnnc2)cc1` (centres undefined), for which the melting point is 98.1 °C. Turning to `N#CCC(=O)c1cccn1Cc1ccccc1`, the melting point lay in the range of 119 to 120 °C.

In turn, `OC(CCCN1CC=C(c2ccc(Cl)cc2)CC1)c1ccc(F)cc1` (centres undefined) came in with a melting point of 103 to 105 °C. In turn, `COc1ccc2[nH]c(SCc3ncc(F)c(N4CCOCC4)c3C)nc2c1` gave a melting point of 84 to 86 °C. The compound `CC(=NO)c1cnc2c(NC(=O)c3c(Cl)cccc3Cl)cccc2c1` yielded a melting point of 215 to 243 °C. To `CNc1coc2cc(NS(C)(=O)=O)c(Oc3ccccc3)cc2c1=O` belongs 192 to 193 °C; to `Cc1nc(NC(=O)c2cnn3c(C(F)(F)F)cc(-c4ccc(C(F)(F)F)cc4)nc23)sc1S(=O)(=O)NC(CO)CO`, 215 °C; to `CCS(=O)c1ccc(-c2coc3ccc(-c4nnc(C)o4)cc23)cc1F` (centres undefined), 187 to 188 °C. `CC(NC1CCc2ccccc21)C(=O)O` (centres undefined) showed a melting point of 248 to 250 °C. To `O=C(NNS(=O)(=O)c1ccccc1)c1ccc(NCc2ccccc2)cc1` belongs 214 to 215 °C; to `COc1ccc(/C=C(\C#N)c2ccccc2Br)cc1OC1CCCC1`, 100 to 103 °C; to `O=c1cc2c(nn1-c1ccccc1)-c1ccccc1CC2`, 155 to 157 °C. Compound `OC1CSC(Oc2cccnc2Br)C(O)C1O` (centres undefined) came in with a melting point of 151 °C.

In turn, `O=C(CCc1ccc(O)cc1)OCCC(c1ccccc1)(c1ccccc1)c1ccccc1` registered a melting point of 105 to 107 °C. On to `O=C(O)c1nc2cc(N3CCOCC3)c([N+](=O)[O-])cc2[nH]c1=O`, for which the melting point turned out to be 214 °C.

`CONS(=O)(=O)c1cccc(C)c1` showed a melting point of 90 to 92 °C.

For `CCCC(=O)c1cnc2c(OC)cccc2c1Nc1ccc(OC(=O)C(C)C)cc1C`, the melting point was in the range of 123 to 125 °C.

In turn, `COc1ccc(C(=O)NNC(=O)c2ccc([N+](=O)[O-])cc2)cc1` came in with a melting point of 256 to 258 °C. The value for `CCOC(=O)c1[nH]c2ccc(Cl)cc2c1-c1ccccc1F` was 191 to 193 °C; that for `NC(=O)c1ccc2c(c1)nc(-c1ccc(OCc3ccccc3)cc1)n2C1CCCC1` was 232 to 233 °C. Consider `CCCOc1ccc([N+](=O)[O-])cc1C1=NC(=O)C2=NC=NC2=N1`, for which the melting point fell in the range of 254 to 256 °C. As for `CCOC(=O)c1c(N2CCN(C(=O)c3cccs3)CC2)c2cnccc2[nH]c1=O`, the melting point stood at 231 °C. To `CCCC12CCC3C4CCC(=O)C=C4CCC3C1CCC2(O)CC` (centres undefined) belongs 93 to 95 °C; to `CCC1(CO)CS(=O)(=O)c2ccccc2C(c2ccccc2)=N1` (centres undefined), 170 to 171 °C; to `CN(C)S(=O)(=O)n1c(C(=S)NC(O)C(Cl)(Cl)Cl)nc2cc(Cl)c(Cl)cc21` (centres undefined), 158 to 160 °C. Regarding `CC(O)c1cccc(Oc2ncccc2OCCCc2ccncc2)c1` (centres undefined), the melting point lay in the range of 93 to 97 °C.
